Values joined by “and” are separate entries in the source; they are usually repeats but may differ in a detail not shown here. Equal values may be shown once. Marks after values point to notes of the source that are not given here.
Legend:
[1] = Plasma protein binding, monkey; type: in vitro ADME; settings: 100 μM (41700 ng/mL)
Source text: […]. […] […].

[2] = Pharmacokinetics, rat; type: in vivo, Sprague-Dawley rats
[3] = Pharmacokinetics, dog; type: in vivo, Beagle dogs; settings: for Foral: AUC0-last; for clearance / Vd / AUC(0-inf) / AUC(0-t) / Cmax / half-life / Tmax: beagle, in vivo; for Vd: read-out: Vss; for AUC(0-t): read-out: AUC0-last (AUC0-24)
[4] = test system: Caco-2 cell monolayers; assay: Membrane permeability, Caco-2 cell monolayers; type: in vitro ADME, human
[5] = Clinical study in healthy adult subjects, pharmacokinetics; type: in vivo, human; settings: mean (% CV)
[6] = Sprague-Dawley, in vivo, IV, 2 mg/kg
[7] = Sprague-Dawley, in vivo, PO, 10 mg/kg
[8] = po, 5 mg/kg, 5 mg/kg (study with 0.5 mg/kg IV)
[9] = po, 5 mg/kg, 5 mg/kg (study with 1 mg/kg IV)

C[C@H](Nc1ncnc2[nH]cnc12)c1cc2cccc(Cl)c2c(=O)n1-c1ccccc1 [Compound 292]
protein bound [1]: 76.8% | clearance [2]: low to moderate | half-life [2]: less than 2 hrs | volume of distribution [2]: high | Foral ([2]; PO, 10 mg/kg): 57% | AUC(0-inf) [2, 6]: 1160 ng·h/mL | AUC(0-t) [2, 6]: 1150 ng·h/mL | Cmax [2, 6]: 1520 ng/mL | Tmax [2, 6]: 0.083 h | clearance ([2]; Sprague-Dawley, in vivo, IV, 2 mg/kg, read-out: Cl (converted)): 30.5 mL/min/kg | half-life ([2]; Sprague-Dawley, in vivo, IV, 2 mg/kg, read-out: T1/2 (converted)): 0.73 h | Vd ([2]; Sprague-Dawley, in vivo, IV, 2 mg/kg, read-out: Vss): 1.66 L/kg | AUC(0-inf) [2, 7]: 3300 ng·h/mL | AUC(0-t) [2, 7]: 2930 ng·h/mL | Cmax [2, 7]: 785 ng/mL | Tmax [2, 7]: 1.2 h | half-life ([2]; Sprague-Dawley, in vivo, PO, 10 mg/kg, read-out: T1/2 (converted)): 2.4 h | Foral ([3]; PO, 5 mg/kg, 0.5 mg/kg IV dose as reference): 97^g,i % | Foral ([3]; PO, 5 mg/kg, 1 mg/kg IV dose as reference): 40% and 40^h,i % | clearance ([3]; IV, 0.5 mg/kg): 0.85 mL/min/kg | Vd ([3]; IV, 0.5 mg/kg): 0.13 L/kg | clearance ([3]; IV, 1 mg/kg): 3.23 mL/min/kg | Vd ([3]; IV, 1 mg/kg): 0.493 L/kg | AUC(0-inf) ([3]; iv, 0.5 mg/kg): 11900 ng·h/mL | AUC(0-t) ([3]; iv, 0.5 mg/kg, IV, 0.5 mg/kg): 11700 ng·h/mL | Cmax ([3]; iv, 0.5 mg/kg, IV, 0.5 mg/kg, read-out: Cmax (reported value is C0)): 4410 ng/mL | half-life ([3]; iv, 0.5 mg/kg, IV, 0.5 mg/kg, read-out: T1/2 (converted)): 2 h | AUC(0-inf) ([3]; iv, 1 mg/kg): 6270 ng·h/mL | AUC(0-t) ([3]; iv, 1 mg/kg, IV, 1 mg/kg): 5880 ng·h/mL | Cmax ([3]; iv, 1 mg/kg, IV, 1 mg/kg, read-out: Cmax (reported value is C0)): 1800 ng/mL | half-life ([3]; iv, 1 mg/kg, IV, 1 mg/kg, read-out: T1/2 (converted)): 1.83 h | AUC(0-inf) [3, 8]: 107000 ng·h/mL | Tmax [3, 8]: 3 h | AUC(0-inf) [3, 9]: 13800 ng·h/mL | Tmax [3, 9]: 1.33 h | AUC(0-t) ([3]; po, 5 mg/kg, PO, 5 mg/kg (study with 0.5 mg/kg IV)): 105000 ng·h/mL | Cmax ([3]; po, 5 mg/kg, PO, 5 mg/kg (study with 0.5 mg/kg IV), read-out: Cmax): 9600 ng/mL | half-life ([3]; po, 5 mg/kg, PO, 5 mg/kg (study with 0.5 mg/kg IV), read-out: T1/2 (converted)): 3.9 h | AUC(0-t) ([3]; po, 5 mg/kg, PO, 5 mg/kg (study with 1 mg/kg IV)): 10900 ng·h/mL | Cmax ([3]; po, 5 mg/kg, PO, 5 mg/kg (study with 1 mg/kg IV), read-out: Cmax): 2370 ng/mL | half-life ([3]; po, 5 mg/kg, PO, 5 mg/kg (study with 1 mg/kg IV), read-out: T1/2 (converted)): 3.15 h | half-life ([3]; read-out: half-life (converted)): 2 h | cell membrane permeability [4]: moderate | AUC(0-24) ([5]; 1 mg single dose): 149 (67) ng * hr/mL | AUC(0-inf) ([5]; 1 mg single dose): 151 (68) ng * hr/mL | Cmax ([5]; 1 mg single dose): 43.4 (31) ng/mL | T1/2 ([5]; 1 mg single dose): 3.52 (29) hr | AUC(0-24) ([5]; 2 mg single dose): 289 (43) ng * hr/mL | AUC(0-inf) ([5]; 2 mg single dose): 296 (44) ng * hr/mL | Cmax ([5]; 2 mg single dose): 78.8 (16) ng/mL | T1/2 ([5]; 2 mg single dose): 5.43 (25) hr | AUC(0-24) ([5]; 5 mg single dose): 733 (5) ng * hr/mL | AUC(0-inf) ([5]; 5 mg single dose): 743 (5) ng * hr/mL | Cmax ([5]; 5 mg single dose): 246 (16) ng/mL | T1/2 ([5]; 5 mg single dose): 5.43 (10) hr | AUC(0-24) ([5]; 10 mg single dose): 891 (14) ng * hr/mL | AUC(0-inf) ([5]; 10 mg single dose): 914 (14) ng * hr/mL | Cmax ([5]; 10 mg single dose): 454 (40) ng/mL | T1/2 ([5]; 10 mg single dose): 9.47 (38) hr | AUC(0-24) ([5]; 20 mg single dose): 2193 (16) ng * hr/mL | AUC(0-inf) ([5]; 20 mg single dose): 2250 (16) ng * hr/mL | Cmax ([5]; 20 mg single dose): 997 (32) ng/mL | T1/2 ([5]; 20 mg single dose): 7.79 (51) hr | AUC(0-24) ([5]; 30 mg single dose): 3263 (38) ng * hr/mL | AUC(0-inf) ([5]; 30 mg single dose): 3395 (38) ng * hr/mL | Cmax ([5]; 30 mg single dose): 1140 (38) ng/mL

From patent US20140120083A1, “TREATMENT OF CANCERS USING PI3 KINASE ISOFORM MODULATORS” (INFINITY PHARMACEUTICALS, INC., priority 2012, published 2014)
